For test [1], the target named is T1, Cannabinoid receptor 2 (Homo sapiens, UniProt P34972). As to the kind of experiment: Displacement of [3H]CP-55,940 from human CB2 receptor expressed in CHO cell membrane after 60 mins by scintillation counting method. The format is cell membranes.
For a further test, the species on record is Homo sapiens. As to the kind of experiment: Selectivity ratio of Ki for human CB1 receptor expressed in CHO cell membrane to Ki for human CB2 receptor expressed in CHO cell membrane. The format is cell-based.
For a further test, the target named is Cannabinoid receptor 1 (Homo sapiens, UniProt P21554). As to the kind of experiment: Displacement of [3H]CP-55,940 from human CB1 receptor expressed in CHO cell membrane after 90 mins by scintillation counting method. It is filed as cell membranes.
Another test is filed under the species Mus musculus. As to the kind of experiment: Selectivity ratio of Ki for CB1 receptor in CD-1 mouse cerebellum membrane to Ki for CB2 receptor in CD-1 mouse spleen homogenate. It is filed as cell membranes.
The target in test [2] is T1, Cannabinoid receptor 2. Kind of test: Antagonist activity at human CB2 receptor expressed in CHO cells assessed as inhibition of WIN 55,212-2-induced reduction in forskolin-stimulated cAMP accumulation by Schild plot analysis. The format is functional, cell-based.
For test [3], the target named is T1, Cannabinoid receptor 2. As to the kind of experiment: Antagonist activity at human CB2 receptor expressed in CHO cells assessed as inhibition of WIN 55,212-2-induced reduction in forskolin-stimulated cAMP accumulation by immunoassay. It is filed as functional, cell-based.
For test [4], the target named is T1, Cannabinoid receptor 2. Kind of test: Inverse agonist activity at human CB2 receptor expressed in CHO cells assessed as increase in forskolin-stimulated cAMP production at 0.1 uM by immunoassay. The format is functional, cell-based.
Test [5] has as its target T1, Cannabinoid receptor 2. As to the kind of experiment: Inverse agonist activity at human CB2 receptor expressed in CHO cells assessed as increase in forskolin-stimulated cAMP production at 1 to 10 uM by immunoassay. It is filed as functional, cell-based.
In test [6] the target is T1, Cannabinoid receptor 2. Kind of test: Antagonist activity at human CB2 receptor expressed in CHO cells assessed as inhibition of WIN 55,212-2-induced reduction in forskolin-stimulated cAMP accumulation at 0.1 to 10 uM by immunoassay. It is filed as functional, cell-based.

Structures are written as SMILES. Active and inactive are the calls of the source. The rule behind the calls is not given here.

T1 sequence (P34972 whole entry): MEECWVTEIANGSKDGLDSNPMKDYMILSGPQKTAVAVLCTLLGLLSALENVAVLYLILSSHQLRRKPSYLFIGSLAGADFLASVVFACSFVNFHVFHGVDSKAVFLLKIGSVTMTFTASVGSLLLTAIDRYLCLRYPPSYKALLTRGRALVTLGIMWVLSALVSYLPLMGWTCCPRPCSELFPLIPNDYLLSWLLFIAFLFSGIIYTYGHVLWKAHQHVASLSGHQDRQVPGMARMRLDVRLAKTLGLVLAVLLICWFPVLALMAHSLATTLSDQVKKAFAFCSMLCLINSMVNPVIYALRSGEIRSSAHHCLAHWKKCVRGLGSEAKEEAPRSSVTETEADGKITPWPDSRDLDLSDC
Sequence of Cannabinoid receptor 1 (P21554 whole entry): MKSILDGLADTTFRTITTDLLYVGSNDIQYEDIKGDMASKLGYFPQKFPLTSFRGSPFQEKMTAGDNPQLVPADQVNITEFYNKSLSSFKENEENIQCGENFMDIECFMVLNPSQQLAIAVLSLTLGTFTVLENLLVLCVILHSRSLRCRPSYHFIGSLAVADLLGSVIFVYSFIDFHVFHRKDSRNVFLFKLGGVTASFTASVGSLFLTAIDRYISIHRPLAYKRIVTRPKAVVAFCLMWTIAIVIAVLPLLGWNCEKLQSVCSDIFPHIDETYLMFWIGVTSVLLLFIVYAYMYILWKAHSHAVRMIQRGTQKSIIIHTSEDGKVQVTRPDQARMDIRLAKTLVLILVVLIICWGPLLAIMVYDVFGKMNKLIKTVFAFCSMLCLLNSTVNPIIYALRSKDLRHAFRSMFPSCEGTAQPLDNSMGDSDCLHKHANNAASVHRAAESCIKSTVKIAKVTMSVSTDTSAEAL

Consider `Cc1ccc(-c2cc3ncccc3c3cc(C(=O)N[C@@H]4C[C@H](C)CC[C@H]4C(C)C)nn23)cc1`, for which the Ki at Cannabinoid receptor 2 [1] was found to be 280 nM; at Cannabinoid receptor 1, 3300 nM. For the same compound, the Ratio Ki in the test filed under Homo sapiens turned out to be 12.
On to `Cc1ccc(-c2cc3ncccc3c3cc(C(=O)NC4C5CC(C[C@@H]4C)C5(C)C)nn23)cc1` (stereo partly specified), for which the Ki on Cannabinoid receptor 2 [1] was 240 nM; at Cannabinoid receptor 1 it was over 10000 nM. In the test listed under Homo sapiens, the Ratio Ki is over 42.
The like results for `Cc1ccc(-c2cc3ncccc3c3cc(C(=O)N[C@H]4C5(C)CCC(C5)C4(C)C)nn23)cc1` (stereo partly specified) were, in that order, 800 nM, 2200 nM and 2.7.
`Cc1ccc(-c2cc3ncccc3c3cc(C(=O)NC4CCCCC4)nn23)cc1`: the Ki on Cannabinoid receptor 2 [1] was 2130 nM; on Cannabinoid receptor 1 it was over 10000 nM. Also, the Ratio Ki in the test filed under Homo sapiens is over 4.7.
Regarding `Cc1ccc2c(c1)Cc1c(C(=O)NN3CCCCC3)nn(-c3ccc(Cl)cc3Cl)c1-2`, the Ratio Ki in the test filed under Mus musculus was 9810.
On to `Cc1ccc(-c2cc3ncccc3c3cc(C(=O)NC45CC6CC(CC(C6)C4)C5)nn23)cc1`, for which the antagonist dissociation constant (Kb) at Cannabinoid receptor 2 [2] turned out to be 316 nM. Also, the inhibition entry on Cannabinoid receptor 2 [3] was “Dose-dependent effect”. Besides, the result at Cannabinoid receptor 2 [4] was Active. Also, the Ki on Cannabinoid receptor 2 [1] was determined as 33 nM; on Cannabinoid receptor 1, 5700 nM. In addition, the Ratio Ki in the test filed under Homo sapiens came out at 173.
`CC1(C)C2CC[C@@H](CNC(=O)c3cc4c5cccnc5cc(-c5ccc(Cl)cc5Cl)n4n3)C1C2` (stereo partly specified): at Cannabinoid receptor 2 [2], the Kb was 650 nM. Also, on Cannabinoid receptor 2 [5], the outcome was Active. Moreover, the values for the Ki on Cannabinoid receptor 2 [1] and at Cannabinoid receptor 1 were 67 nM and over 10000 nM, respectively. The Ratio Ki in the test filed under Homo sapiens was over 149. In addition, the inhibition result at Cannabinoid receptor 2 [6] was “Active”.
For `Cc1ccc(-c2cc3ncccc3c3cc(C(=O)NN4CCCCC4)nn23)cc1`, the Ki on Cannabinoid receptor 2 [1] was over 1000 nM; on Cannabinoid receptor 1, over 10000 nM.
With `Cc1ccc(-c2cc3ncccc3c3cc(C(=O)N[C@H]4CC5CCC4(C)C5(C)C)nn23)cc1` (stereo partly specified), the Kb at Cannabinoid receptor 2 [2] came out at 505 nM. The outcome on Cannabinoid receptor 2 [5] was Active. For the same compound, the Ki on Cannabinoid receptor 2 [1] is 53 nM; at Cannabinoid receptor 1 it was 7000 nM. The Ratio Ki in the test listed under Homo sapiens turned out to be 132. The inhibition entry on Cannabinoid receptor 2 [6] is “Active”.
For the compound `Cc1ccc(-c2cc3ncccc3c3cc(C(=O)NC4C5CC6CC(C5)CC4C6)nn23)cc1` (stereo unspecified), the figures for the Ki at Cannabinoid receptor 2 [1] and at Cannabinoid receptor 1 were 133 nM and over 10000 nM, respectively. Moreover, the Ratio Ki in the test listed under Homo sapiens is over 75.
The like results for `Cc1ccc(-c2cc3ncccc3c3cc(C(=O)NC[C@@H]4CCC5CC4C5(C)C)nn23)cc1` (stereo partly specified) were, in that order, 120 nM, over 10000 nM and over 83.
For the compound `CC1=C(C(=O)c2cccc3ccccc23)C2C=CC=C3OC[C@@H](CN4CCOCC4)N1C32` (stereo partly specified), the Ratio Ki in the test listed under Homo sapiens came to 5.2. The same compound showed a Ki on Cannabinoid receptor 1 of 13 nM.

The values above are taken from ChEMBL document CHEMBL4428116, “Synthesis, molecular modeling and SAR study of novel pyrazolo[5,1-f][1,6]naphthyridines as CB2 receptor antagonists/inverse agonists” (Bioorg Med Chem, 2016).
